Measurements reported in PMC9089363, “Nonpolymeric Citramide-Based Kinetic Hydrate Inhibitors: Good Performance with Just Six Alkylamide Groups” (ACS Omega, 2022).
Like-named read-outs stand apart in the source and are kept apart here.

Legend:
[1] = Slow constant cooling (SCC) KHI performance test in high-pressure steel rocking cells; settings: SNG 76 bar
Experimental: 2.5 Kinetic Hydrate Inhibitor (KHI) Performance Tests in High-Pressure Rocking Cells
A rig with five high-pressure steel rocking cells was used for carrying out the KHI performance ranking of the new molecules. Each cell has a volume of 40 mL and a steel ball for agitation. The rig was supplied by PSL Systemtechnik GmbH, Germany, but the cells were constructed by Swafas, Norway (Figure 6). As in most of our KHI studies, we used a synthetic natural gas (SNG) mixture in order to compare results with a host of previous KHI studies. The SNG gives an sII hydrate as the thermodynamically stable phase (Table 1). Also, for comparative purposes we used our standard slow constant cooling (SCC) test method.[27] The pressure was approximately 76 bar at the start of each SCC experiment. At this pressure, an average equilibrium temperature (Teq) of 20.2 °C ± 0.05 °C was obtained from five repeat tests by laboratory slow dissociation experiments in the same rocking cells.[20] This agrees very well with a Teq value of 20.5 °C calculated using Calsep’s PVTSim software.
The SCC test procedure was carried out as follows: • 1. First, 20.0 mL of aqueous test solution was added to each steel cell, i.e., half the cell volume. • 2. Air was removed from the cells by alternate vacuum and filling with 1–5 bar SNG gas. • 3. The cells were filled with a 76 bar SNG mixture at room temperature, 20.5 °C. • 4. The cells were cooled from 20.5 to 2 °C at a rate of 1 °C/h while rocking. • 5. Temperature and pressure data for each cell were collected from the sensors and recorded throughout the whole cooling procedure.
Figure 8 illustrates how this is done for one cell. The small pressure drop at the very start of the graph is due to some SNG mixture dissolving in the aqueous phase. After this, the pressure drop is linear until hydrate formation is first detected at a To of 8.4 °C, where the pressure line deviates. Nucleation may have occurred somewhat earlier but is not detectable. Ta is the first temperature at which we observe the maximum rate of gas hydrate formation for the experiment.
At 8.1 °C (Ta), the first fastest pressure drop rate occurs. In this case, the rate of hydrate growth is fast shortly after To. […] The degrees of scattering in To values (≤20%) and Ta values (≤15%) are due to the stochastic nature of gas hydrate formation and are as expected from previous studies.[28] The scattering still allows for a rough ranking of the performance of the KHI samples as long as sufficient tests are carried out for a statistically significant difference using a t-test. Depending on the variation in average To between samples, 5–10 tests suffices in most cases to get a significant difference at the 95% confidence level (p < 0.05).[29]
At least 5 (and up to 10) standard constant cooling tests were employed to get each average To and average Ta value, where To denotes the temperature at which the first macroscopic detectable gas hydrate is formed and Ta denotes the rapid hydrate formation temperature in a solution. The KHI performance of each citramide derivative was compared mostly based on the To values as complete avoidance of gas hydrate formation is the preferred goal for field operations. Thus, a lower To value of a solution corresponds to a better KHI performance. […] However, caution in using this interpretation must be taken, since a low To value will mean a high driving force, which can cause more rapid macroscopic hydrate formation than a higher To value.

[2] = Cloud point (TCl) determination; type: physicochemical; settings: 2500 ppm aqueous solution, heated ca. 5 °C/min up to 95 °C
Experimental: A 2500 ppm aqueous solution of each citramide derivative was heated slowly (ca. 5 °C/min), and the first sign of clouding of the solution at a certain temperature was denoted as the cloud point. Any solution that was already opaque at room temperature was first kept in a cooling room at 0–5 °C overnight before heating. Each measurement was repeated at least three times to check the reproducibility of the cloud point.

[3] = Solubility in water (observation); type: physicochemical
[4] = 2500 ppm aqueous solution, cooling 20.5 to 2 °C at 1 °C/h, average of 5-10 tests
[5] = 2500 ppm aqueous solution, cooling 20.5 to 2 °C at 1 °C/h, average of 5-10 tests, lower = better KHI
[6] = 1000 ppm aqueous solution, SCC 1 °C/h
[7] = 2500 ppm + 1 mL of n-decane each cell + 5000 ppm nBGE, SCC 1 °C/h
[8] = 2500 ppm + 1 mL of n-decane each cell, SCC 1 °C/h
[9] = 2500 ppm + 3 mL of n-decane each cell + 5000 ppm nBGE, SCC 1 °C/h

cloud p.t Tcl [2] [°C]	SMILES	av. Ta (gas hydrate rapid formation temperature) [1, 4] [°C]	av. To (gas hydrate onset temperature) [1, 5] [°C]	other results
>95	CC(C)CNC(=O)CC(O)(CC(=O)NCC(C)C)C(=O)NCC(C)C [TiBuCAm, 2-Hydroxy-N^1,N^2,N^3-triisobutylpropane-1,2,3-tricarboxamide]	13.5		
	CCCCCNC(=O)CC(O)(CC(=O)NCCCCC)C(=O)NCCCCC [TnPeCAm, 2-Hydroxy-N^1,N^2,N^3-tripentylpropane-1,2,3-tricarboxamide]			solubility in water [3]: not soluble; solubility in water ([3]; listed as Tri-n-pentylcitramide): negligible solubility in water; solubility in water ([3]; listed as tri-n-pentylcitramide): not water soluble
>95	CCCNC(=O)CC(O)(CC(=O)NCCC)C(=O)NCCC [TnPrCAm, 2-Hydroxy-N^1,N^2,N^3-tripropylpropane-1,2,3-tricarboxamide]	12.3	16.3	
>95	CC(C)CNC(=O)CC(CC(=O)NCC(C)C)(OC(=O)CC(=O)OC(CC(=O)NCC(C)C)(CC(=O)NCC(C)C)C(=O)NCC(C)C)C(=O)NCC(C)C [malonyl-TiBuCAm, 1,3-Malonic acid bis(triisobutylcitric acid) amide]	12.7		
>95	CCCNC(=O)CC(CC(=O)NCCC)(OC(=O)CC(=O)OC(CC(=O)NCCC)(CC(=O)NCCC)C(=O)NCCC)C(=O)NCCC [malonyl-TnPrCAm, 1,3-Malonic acid bis(tripropylcitric acid) amide]	13.5	16.3	
35	CC(C)CNC(=O)CC(CC(=O)NCC(C)C)(OC(=O)COCC(=O)OC(CC(=O)NCC(C)C)(CC(=O)NCC(C)C)C(=O)NCC(C)C)C(=O)NCC(C)C [oxydiacetyl-TiBuCAm, 2,2′-oxydiacetic acid bis(triisobutylcitric acid) amide]	8.1	8.4	av. Ta (gas hydrate rapid formation temperature) [1, 6]: 9.2 °C; av. To (gas hydrate onset temperature) [1, 6]: 9.3 °C; av. Ta (gas hydrate rapid formation temperature) [1, 7]: 7.9 °C; av. To (gas hydrate onset temperature) [1, 7]: 8.1 °C; av. Ta (gas hydrate rapid formation temperature) [1, 8]: 7.2 °C; av. To (gas hydrate onset temperature) [1, 8]: 7.4 °C; av. Ta (gas hydrate rapid formation temperature) [1, 9]: 6.0 °C; av. To (gas hydrate onset temperature) [1, 9]: 6.2 °C
>95	CCCNC(=O)CC(CC(=O)NCCC)(OC(=O)COCC(=O)OC(CC(=O)NCCC)(CC(=O)NCCC)C(=O)NCCC)C(=O)NCCC [oxydiacetyl-TnPrCAm, 2,2′-Oxydiacetic acid bis(tripropylcitric acid) amide]	12.3	12.8	
